Reference: US8871767B2, “2-arylimidazo[1,2-B]pyridazine, 2-phenylimidazo[1,2-A]pyridine, and 2-phenylimidazo[1,2-A]pyrazine derivatives” (Hengrui (USA) Ltd., priority 2010, dated 2014)
Read-outs that look alike come from different tables or passages of the source.

What was measured:
[1] = system: Hedgehog pathway activation (GLi-luciferase reporter) in Shh Light II reporter cells; assay: Hedgehog pathway activation on Shh Light II reporter cells measured by luciferase activity; format: cell-based; conditions: Mus musculus, Shh Light II
In short: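 Shh Light II reporter cells carrying a hedgehog-responsive GLi-luciferase reporter were stimulated either with 500 nM SAG, a direct Smoothened agonist, or with conditioned media containing human Sonic Hedgehog (hShh). Test compounds were evaluated for blocking this pathway activation, quantified by luciferase activity. Cell viability was monitored in parallel with the Celltiter-Blue® assay.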

[2] = system: Hedgehog pathway activation on 10T1/2/Smo#3 cells (C3H10T1/2 cells transfected with human Smoothened receptor); assay: Hedgehog pathway activation on 10T1/2/Smo#3 cells measured by ALP activity; format: cell-based; conditions: Mus musculus, C3H 10T1/2, 10T1/2/Smo#3 cells
In short: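 Inhibition of alkaline phosphatase induction, read fluorometrically from 4-methylumbelliferyl phosphate conversion, gave IC50 values; CellTiter-Blue tracked viability in parallel. Cells were the human Smo-transfected 10T1/2/Smo#3 pool, stimulated by 10-20% hShh conditioned medium or the Smo agonist SAG (500 nM).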

[3] = SAG activation (500 nM SAG), read-out: Shh Light II luciferase activity (SAG activation)
[4] = hShh activation, read-out: Shh (IC50, inhibition of Hedgehog pathway activation)
[5] = hShh activation, read-out: Shh Light II luciferase activity (hShh activation)
[6] = hShh activation, ALP activity, read-out: 10T1/2/Smo#3 ALP activity (hShh Activation)
[7] = measured by ALP activity, read-out: ALP (IC50, inhibition of Hedgehog pathway activation)

Cc1ccc(-c2cn3nc(-c4cc(O)ccc4C(F)(F)F)ccc3n2)cc1NC(=O)C(C)(C)C [Example 399, N-(5-(6-(5-hydroxy-2-(trifluoromethyl)phenyl)imidazo[1,2-b]pyridazin-2-yl)-2-methylphenyl)pivalamide]
IC50 [1, 3]: < 0.3 µM | IC50 [1, 4]: 0.105 µM | IC50 [1, 5]: < 0.3 µM | IC50 [2, 6]: < 0.3 µM | IC50 [2, 7]: 0.175 µM

CC(C)(C)C(=O)Nc1cc(-c2cn3nc(-c4c(F)cccc4F)ccc3n2)ccc1C(F)(F)F [Example 184, N-(5-(6-(2,6-difluorophenyl)imidazo[1,2-b]pyridazin-2-yl)-2-(trifluoromethyl)phenyl)pivalamide]
IC50 [1, 4]: 0.191 µM | IC50 [2, 7]: 0.061 µM

CC(C)(C)C(=O)Nc1cc(-c2cn3nc(N4CCN(C(=N)N)CC4)ccc3n2)ccc1C(F)(F)F [compound 570]
IC50 [1, 4]: 0.24 µM | IC50 [2, 7]: 0.73 µM

Cc1cc(Cl)c(-c2cn3nc(N4CC[C@@H](O)C4)ccc3n2)cc1NC(=O)C(C)(C)C [Example 640, (R)—N-(4-chloro-5-(6-(3-hydroxypyrrolidin-1-yl)imidazo[1,2-b]pyridazin-2-yl)-2-methylphenyl)pivalamide]
IC50 [1, 4]: 0.107 µM | IC50 [2, 7]: 0.138 µM

CC(C)(C)C(=O)Nc1cc(-c2cn3nc(-c4ccc(Cl)cc4)ccc3n2)ccc1C(F)(F)F [Example 238, N-(5-(6-(4-chlorophenyl)imidazo[1,2-b]pyridazin-2-yl)-2-(trifluoromethyl)phenyl)pivalamide]
IC50 [1, 4]: 0.625 µM | IC50 [2, 7]: 0.23 µM

COc1ccc2nc(-c3ccc(C)c(NCc4ccc(F)cc4)c3)cn2n1 [Example 102, N-(4-fluorobenzyl)-5-(6-methoxyimidazo[1,2-b]pyridazin-2-yl)-2-methylaniline]
IC50 [1, 4]: 9.12 µM | IC50 [2, 7]: 4.21 µM

Cc1ccc(-c2cn3nc(-c4ccc(C(=O)O)cc4Cl)ccc3n2)cc1NC(=O)C(C)(C)C [compound 540]
IC50 [1, 4]: 0.447 µM | IC50 [2, 7]: 0.891 µM

C[C@H]1CCCC[C@H]1Oc1ccc2nc(-c3ccc(C(F)(F)F)c(NC(=O)C(C)(C)C)c3)cn2n1 [Example 308, N-(5-(6-((1R,2S)-2-methylcyclohexyloxy)imidazo[1,2-b]pyridazin-2-yl)-2-(trifluoromethyl)phenyl)pivalamide]
IC50 [1, 4]: 1.07 µM | IC50 [2, 7]: 1.2 µM

CC1CCN(c2ccc3nc(-c4ccc(C(F)(F)F)c(NC(=O)C(C)(C)C)c4)cn3n2)CC1 [Example 233, N-(5-(6-(4-methylpiperidin-1-yl)imidazo[1,2-b]pyridazin-2-yl)-2-(trifluoromethyl)phenyl)pivalamide]
IC50 [1, 4]: 0.329 µM | IC50 [2, 7]: 0.339 µM

O=S(=O)(NC1CC1)c1cc(-c2cn3nc(-c4cccnc4C(F)(F)F)ccc3n2)ccc1Cl [Example 702, 2-chloro-N-cyclopropyl-5-(6-(2-(trifluoromethyl)pyridin-3-yl)imidazo[1,2-b]pyridazin-2-yl)benzenesulfonamide]
IC50 [1, 4]: 3.98 µM | IC50 [2, 7]: > 10 µM

CC(=O)NC1CCN(c2ccc3nc(-c4ccc(C)c(NC(=O)C(C)(C)C)c4)c(C)n3n2)C1 (stereo not drawn) [Example 363, N-(5-(6-(3-acetamidopyrrolidin-1-yl)-3-methylimidazo[1,2-b]pyridazin-2-yl)-2-methylphenyl)pivalamide]
IC50 [1, 3]: 0.3 to 3 µM | IC50 [1, 4]: 0.612 µM | IC50 [1, 5]: 0.3 to 3 µM | IC50 [2, 6]: 0.3 to 3 µM | IC50 [2, 7]: 1.24 µM

Cc1ccc(-c2cn3nc(-c4ccc(C=CC(=O)NOC5CCCCO5)cc4)ccc3n2)cc1NC(=O)C(C)(C)C (stereo not drawn) [compound 558]
IC50 [1, 4]: 0.391 µM | IC50 [2, 7]: 1.06 µM

Cc1c(-c2ccccc2)nc2ccc(N3CCN(Cc4ccncc4)CC3)nn12 [Example 162, 3-methyl-2-phenyl-6-(4-(pyridin-4-ylmethyl)piperazin-1-yl)imidazo[1,2-b]pyridazine]
IC50 [1, 4]: 1.4 µM | IC50 [2, 7]: 1.11 µM

Cc1ccc(-c2cn3nc(-c4cccnc4F)ccc3n2)cc1NC(=O)C(C)(C)C [Example 265, N-(5-(6-(2-fluoropyridin-3-yl)imidazo[1,2-b]pyridazin-2-yl)-2-methylphenyl)pivalamide]
IC50 [1, 4]: 0.083 µM | IC50 [2, 7]: 0.082 µM

CCOC(=O)CCCCCCOc1ccc(C(F)(F)F)c(-c2ccc3nc(-c4ccc(C)c(NC(=O)C(C)(C)C)c4)cn3n2)c1 [Example 425, ethyl 7-(3-(2-(4-methyl-3-pivalamidophenyl)imidazo[1,2-b]pyridazin-6-yl)-4-(trifluoromethyl)phenoxy)heptanoate]
IC50 [1, 4]: 0.086 µM | IC50 [2, 7]: 0.239 µM

CC(C)(C)C(=O)Nc1cc(-c2cn3nc(N4CCN(S(C)(=O)=O)CC4)ccc3n2)ccc1C(F)(F)F [Example 234, N-(5-(6-(4-(methylsulfonyl)piperazin-1-yl)imidazo[1,2-b]pyridazin-2-yl)-2-(trifluoromethyl)phenyl)pivalamide]
IC50 [1, 4]: 0.547 µM | IC50 [2, 7]: 0.23 µM

CNc1ccc2nc(-c3ccc(C(F)(F)F)c(NC(=O)C(C)(C)C)c3)cn2n1 [Example 137, N-(5-(6-(methylamino)imidazo[1,2-b]pyridazin-2-yl)-2-(trifluoromethyl)phenyl)pivalamide]
IC50 [1, 3]: 0.3 to 3 µM | IC50 [1, 4]: 0.623 µM | IC50 [1, 5]: 0.3 to 3 µM | IC50 [2, 6]: 0.3 to 3 µM | IC50 [2, 7]: 0.995 µM

COc1ccc2nc(-c3ccc(C)c(NC(=O)C(C)(C)C)c3)cn2n1 [Example 94, N-(5-(6-methoxyimidazo[1,2-b]pyridazin-2-yl)-2-methylphenyl)pivalamide]
IC50 [1, 4]: 0.614 µM | IC50 [2, 7]: 1.52 µM

CC(C)(C)C(=O)Nc1cc(-c2cn3nc(-c4cccc(O)c4)ccc3n2)ccc1C(F)(F)F [Example 242, N-(5-(6-(3-hydroxyphenyl)imidazo[1,2-b]pyridazin-2-yl)-2-(trifluoromethyl)phenyl)pivalamide]
IC50 [1, 4]: 0.402 µM | IC50 [2, 7]: 0.446 µM

CC(CC(=O)Nc1cc(-c2cn3nc(-c4cccnc4C(F)(F)F)ccc3n2)ccc1Cl)C(F)(F)F (stereo not drawn) [Example 666, N-(2-chloro-5-(6-(2-(trifluoromethyl)pyridin-3-yl)imidazo[1,2-b]pyridazin-2-yl)phenyl)-4,4,4-trifluoro-3-methylbutanamide]
IC50 [1, 4]: 0.064 µM | IC50 [2, 7]: 0.527 µM

FC(F)(F)c1ccc(-c2cn3nc(Cl)ccc3n2)cc1Br [Example 203, 2-(3-bromo-4-(trifluoromethyl)phenyl)-6-chloroimidazo[1,2-b]pyridazine]
IC50 [1, 4]: > 10 µM | IC50 [2, 7]: 9.45 µM

Cc1ccc(-c2cn3cccnc3n2)cc1NC(=O)CC(C)(C)C [Example 89, N-(5-(imidazo[1,2-a]pyrimidin-2-yl)-2-methylphenyl)-3,3-dimethylbutanamide]
IC50 [1, 3]: 3 to 30 µM | IC50 [1, 5]: 3 to 30 µM | IC50 [2, 6]: 3 to 30 µM

CC(=O)Nc1ccccc1-c1ccc2nc(-c3ccc(C)c(NC(=O)C(C)(C)C)c3)cn2n1 [Example 289, N-(5-(6-(2-acetamidophenyl)imidazo[1,2-b]pyridazin-2-yl)-2-methylphenyl)pivalamide]
IC50 [1, 4]: 0.284 µM | IC50 [2, 7]: 0.09 µM

CC(C)(C)C(=O)Nc1cc(-c2cn3nc(NC4CCCC4)ccc3n2)ccc1C(F)(F)F [Example 301, N-(5-(6-(cyclopentylamino)imidazo[1,2-b]pyridazin-2-yl)-2-(trifluoromethyl)phenyl)pivalamide]
IC50 [1, 4]: 0.406 µM | IC50 [2, 7]: 1.05 µM

CCCCS(=O)(=O)c1ccc2nc(-c3ccc(C)c(NC(=O)C(C)(C)C)c3)cn2n1 [Example 130, N-(5-(6-(butylsulfonyl)imidazo[1,2-b]pyridazin-2-yl)-2-methylphenyl)pivalamide]
IC50 [1, 3]: < 0.3 µM | IC50 [1, 4]: 0.898 µM | IC50 [1, 5]: 0.3 to 3 µM | IC50 [2, 6]: 0.3 to 3 µM | IC50 [2, 7]: 0.526 µM

Cc1ccc(-c2cn3nc(-c4ccccc4F)ccc3n2)cc1NC(=O)C(C)(C)C [Example 220, N-(5-(6-(2-fluorophenyl)imidazo[1,2-b]pyridazin-2-yl)-2-methylphenyl)pivalamide]
IC50 [1, 4]: 0.052 µM | IC50 [2, 7]: 0.028 µM

O=C(Nc1cc(-c2cn3nc(-c4cccnc4C(F)(F)F)ccc3n2)ccc1Cl)N1CC(F)(F)C1 [Example 669, N-(2-chloro-5-(6-(2-(trifluoromethyl)pyridin-3-yl)imidazo[1,2-b]pyridazin-2-yl)phenyl)-3,3-difluoroazetidine-1-carboxamide]
IC50 [1, 3]: < 0.3 µM | IC50 [1, 4]: 0.028 µM | IC50 [1, 5]: < 0.3 µM | IC50 [2, 6]: < 0.3 µM | IC50 [2, 7]: 0.125 µM

COc1cc(CNc2cc(-c3cn4nc(OC)ccc4n3)ccc2C)cc(OC)c1 [Example 103, N-(3,5-dimethoxybenzyl)-5-(6-methoxyimidazo[1,2-b]pyridazin-2-yl)-2-methylaniline]
IC50 [1, 4]: > 10 µM | IC50 [2, 7]: 3.93 µM

O=C(Nc1cc(-c2cn3nc(-c4cccnc4C(F)(F)F)ccc3n2)ccc1Cl)C1CC1 [Example 676, N-(2-chloro-5-(6-(2-(trifluoromethyl)pyridin-3-yl)imidazo[1,2-b]pyridazin-2-yl)phenyl)cyclopropanecarboxamide]
IC50 [1, 4]: 0.111 µM | IC50 [2, 7]: 0.721 µM

CN(C)c1ccc2nc(-c3ccc(C(F)(F)F)c(NC(=O)C(C)(C)C)c3)cn2n1 [Example 138, N-(5-(6-(dimethylamino)imidazo[1,2-b]pyridazin-2-yl)-2-(trifluoromethyl)phenyl)pivalamide]
IC50 [1, 4]: 3.45 µM | IC50 [2, 7]: 2.17 µM

Cc1ccc(-c2cn3nc(N4CCC(N(C)C)C4)ccc3n2)cc1NC(=O)C(C)(C)C (stereo not drawn) [Example 361, N-(5-(6-(3-(dimethylamino)pyrrolidin-1-yl)imidazo[1,2-b]pyridazin-2-yl)-2-methylphenyl)pivalamide]
IC50 [1, 4]: 0.084 µM | IC50 [2, 7]: 0.11 µM
